Experimental data: patent publication US7344829B2, “Methods for detecting the efficacy of anticancer treatments” (Board of Regents, the University of Texas System, priority 2000, dated 2008)
Marks after values point to notes of the source that are not given here.

Key:
c-Kit = target: T1, c-Kit (Homo sapiens, UniProt P10721); test: GST-fused kinase domain assay, c-Kit; type: biochemical
T1 construct: GST-fused kinase domains of Kdr, Flt-1, Flk, Tek, c-Met, and c-Kit were expressed in baculovirus; GST; made in house
T1 sequence (P10721 589-937 limits assumed): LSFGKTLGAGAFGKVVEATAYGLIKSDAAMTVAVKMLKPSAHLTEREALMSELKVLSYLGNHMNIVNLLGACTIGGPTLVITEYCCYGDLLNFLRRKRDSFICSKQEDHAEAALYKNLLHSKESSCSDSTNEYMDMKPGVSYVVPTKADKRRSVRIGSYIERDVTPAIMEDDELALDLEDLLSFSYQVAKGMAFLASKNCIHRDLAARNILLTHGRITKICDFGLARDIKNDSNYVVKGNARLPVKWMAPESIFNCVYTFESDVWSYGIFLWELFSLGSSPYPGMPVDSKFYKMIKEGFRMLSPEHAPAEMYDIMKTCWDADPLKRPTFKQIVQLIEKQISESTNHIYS
Description: GST-fused kinase domains of Kdr, Flt-1, Flk, Tek, c-Met, and c-Kit were expressed in baculovirus and purified over glutathione-Sepharose. Kinase inhibition was measured by detecting the decrease in phosphorylation of poly(Glu,Tyr 4:1) essentially as previously described for EGF-R. Each kinase was incubated under optimized buffer conditions in 20 mM Tris-HCl, pH 7.5, 1–3 mM MnCl2, 3–10 mM MgCl2, 10 μM Na3VO4, 1 mM DTT, 0.2 μCi/[γ-^33P]ATP, 1–8 μM ATP, 3–8 μg/ml poly(Glu,Tyr 4:1), 1% DMSO in a total volume of 30 μl in the presence or absence of PKI166 for 10 min at ambient temperature. Reactions were terminated by adding 10 μl of 250 mM EDTA, and the reaction mixture was transferred onto an Immobilon-PVDG membrane (Millipore, Bedford, Mass.). Following a washing (0.5% H3PO4), a soaking in EtOH, and drying, filters were counted in a liquid scintillation counter. IC50 values for PKI166 were calculated by linear regression analysis of the percentage inhibition. Inhibition of Cdc2/cyclin B protein kinase (Arion et al. 1988; Partanen et al. 1991) and PKC (McGlynn et al. 1992b) was assayed as previously described.

[1] = test system: L3.6pl human pancreatic cancer cells; test: Immunohistochemical analysis of human pancreatic carcinoma in the pancreas of treated nude mice; type: in vivo; conditions: for PCNA+ tumor cells / TUNEL+ tumor cells: mean ± SD, 10 random 0.159-mm^2 fields at ×100; for CD (CD31, tumor MVD per field): staining with antibodies against CD31
Description: Immunohistochemical (IHC) Determination of VEGF, IL-8, PCNA, CD31/PECAM-1, and EGF-R. Paraffin-embedded tissues were used for identification of VEGF, IL-8, EGF-R, and proliferating cell nuclear antigen (PCNA). Sections (4–6 μm thick) were mounted on positively-charged Superfrost slides (Fisher Scientific, Co., Houston, Tex.) and dried overnight. Sections were deparaffinized in xylene followed by treatment with a graded series of alcohol (100%, 95%, 80% ethanol/ddH2O [v/v]) and rehydrated in PBS, pH 7.5. Sections analyzed for PCNA were microwaved 5 min for “antigen retrieval” (Shi et al. 1991). All other paraffin-embedded tissues were treated with pepsin (Biomeda) for 15 min at 37° C. and washed with PBS. Frozen tissues used for identification of CD31/PECAM-1, and activated EGF-R were sectioned (8–10 μm), mounted on positively charged Plus slides (Fisher Scientific), and air-dried for 30 min. Frozen sections were fixed in cold acetone (5 min), acetone/chloroform (v/v) (5 min), and acetone (5 min) and washed with PBS. Immunohistochemical procedures were performed as described previously (Rak et al. 1996). Positive reaction was visualized by incubating the slides with stable 3,3′-diaminobenzidine (DAB) for 10–20 min or 3-amino-9-ethylcarbazole (AEC) after CD31 staining. The sections were rinsed with distilled water, counterstained with Gill's hematoxylin for 1 min, and mounted with Universal Mount (Research Genetics). […] Sections analyzed for activated EGF-R were pretreated with goat anti-mouse IgG F(ab)2 fragment (1:10 dilution in PBS) for 4–6 h before incubation with the primary antibody. The positive reaction following staining for activated EGF-R was enhanced with osmium tetraoxide (4% aqueous solution) at a 1:1000 dilution in ddH2O after incubation with DAB.
Immunofluorescence Double Staining for CD31/PECAM-1 (Endothelial Cells) and TUNEL (Apoptotic Cells). Frozen tissues were sectioned (8–10 μm), mounted on positively charged slides, air-dried for 30 min, and fixed in cold acetone for 5 min, acetone+chloroform (1:1) for 5 min, and acetone for 5 min. Samples were washed 3 times with PBS, incubated with protein-blocking solution containing 5% normal horse serum and 1% normal goat serum in PBS for 20 min at room temperature, and incubated with the appropriate dilution (1:400) of rat monoclonal anti-mouse CD31 antibody (human cross-reactive) over 18 h at 4° C. After the samples were rinsed 4 times for 3 min each with PBS, the slides were incubated with the appropriate dilution (1:200) of secondary goat anti-rat conjugated to Texas Red for 1 h at room temperature in the dark. Samples were washed twice with PBS containing 0.1% Brij and washed with PBS for 5 min.
TUNEL was performed using a commercially available apoptosis detection kit with the following modifications: samples were fixed with 4% paraformaldehyde (methanol-free) for 10 min at room temperature, washed twice with PBS for 5 min, and then incubated with 0.2% Triton X-100 for 15 min at room temperature. After two washes of 5 min each with PBS, the samples were incubated with equilibration buffer (from kit) for 10 min at room temperature. The equilibration buffer was drained, and reaction buffer containing equilibration buffer, nucleotide mix, and TdT enzyme was added to the tissue sections and incubated in a humid atmosphere at 37° C. for 1 h in the dark. The reaction was terminated by immersing the samples in 2×SSC for 15 min. Samples were washed 3 times for 5 min to remove unincorporated fluorescein-dUTP. For quantification of […], the samples were incubated with 300 μg/ml of Hoechst stain for 10 min at room temperature. Fluorescent bleaching was minimized by treating slides with an enhancing reagent (Prolong solution). […]

[2] = test system: L3.6pl human pancreatic cancer cells
Description: Animals and Orthotopic Implantation of Tumor Cells. Male athymic nude mice (NCr-nu) were purchased from the Animal Production Area of the National Cancer Institute-Frederick Cancer Research and Development Center (Frederick, Md.). The mice were housed and maintained in laminar flow cabinets under specific pathogen-free conditions in facilities approved by the American Association for Accreditation of Laboratory Animal Care and in accordance with current regulations and standards of the U. S. Department of Agriculture, U.S. Department of Health and Human Services, and the National Institutes of Health. The mice were used in accordance with institutional guidelines when they were 8 to 12 wk old.
Orthotopic Implantation of Tumor Cells. To produce tumors, L3.6pl cells were harvested from subconfluent cultures by a brief exposure to 0.25% trypsin and 0.02% EDTA. Trypsinization was stopped with medium containing 10% FBS, and the cells were washed once in serum-free medium and resuspended in HBSS. Only suspensions consisting of single cells with greater than 90% viability were used for the injections. Cells were injected into the pancreas as described previously. The mice were killed when moribund (5–6 wk). The size and weight of the primary pancreatic tumors, the incidence of regional (celiac and paraaortal) lymph node metastasis, and the number of liver metastases were recorded. Histopathology confirmed the nature of the disease.
Therapy of Established Human Pancreatic Carcinoma Tumors Growing in the Pancreas of Athymic Nude Mice. Seven days after implantation of tumor cells into the pancreas, 5 mice were killed and the presence of tumor lesions was determined. At this time, the median tumor volume was 18 mm^3. Histological examination confirmed the lesions to be actively growing pancreatic cancer.
Necropsy Procedures and Histological Studies. Mice were euthanized and the body weight was determined. Primary tumors in the pancreas were excised and weighed. […] Visible liver metastases were counted with the aid of a dissecting microscope and processed for H&E staining. All macroscopically enlarged regional (celiac and paraaortal) lymph nodes were harvested, and the presence of metastatic disease was confirmed by histology.

[3] = mean ± SD absorbance, ratio of tumor cell to normal pancreatic gland expression ×100, day 35

C[C@@H](Nc1ncnc2[nH]c(-c3ccc(O)cc3)cc12)c1ccccc1 [PKI166, 4-(R)-phenethylamino-6-(hydroxyl) phenyl-7H-pyrrolo[2.3-d]-pyrimidine]
IC50 (c-Kit): 2210 nM
percentage of apoptotic endothelial cells over total endothelial cells ([1]; CD31/TUNEL double labeling, tumors harvested 23 days after initiation of treatment): 20±15
ratio of PCNA-positive over TUNEL-positive cells ([1]; calculated): 0.64
Staining of pancreatic tumors for activated (phosphorylated) EGF-R ([1]; immunohistochemistry of tumors from treated nude mice): not the activated (phosphorylated) EGF-R
IL-8 [1, 3]: 185 ± 11^e
VEGF [1, 3]: 173 ± 20^e
PCNA+ tumor cells ([1]; day 35): 185±33 positive cells/field
TUNEL+ tumor cells ([1]; day 35): 287±84 positive cells/field
PCNA+ tumor cells ([1]; day 35, listed as PK1166): 185 ± 33 positive cells/field
TUNEL+ tumor cells ([1]; day 35, listed as PK1166): 287 ± 84^e positive cells/field
CD (CD31, tumor MVD per field) ([1]; day 35): 24±18
CD (CD31, tumor MVD per field) ([1]; day 35, listed as PK1166): 24
Histologically positive regional lymph node metastases, share of animals ([2]; day 35): 90%
Reduction of growth of primary pancreatic neoplasms ([2]; human pancreatic carcinoma in pancreas of nude mice): 45%
Tolerability as determined by maintenance of body weight ([2]; mouse, in vivo, po, 100 mg/kg): well tolerated
